Active and inactive are the calls of the source. The rule behind the calls is not given here.
Columns and labels:
[1] = molecular target: T1, Tyrosine-protein phosphatase non-receptor type 1 (Homo sapiens, UniProt P18031); assay: Inhibition of PTP1B
T1 sequence (P18031 whole entry): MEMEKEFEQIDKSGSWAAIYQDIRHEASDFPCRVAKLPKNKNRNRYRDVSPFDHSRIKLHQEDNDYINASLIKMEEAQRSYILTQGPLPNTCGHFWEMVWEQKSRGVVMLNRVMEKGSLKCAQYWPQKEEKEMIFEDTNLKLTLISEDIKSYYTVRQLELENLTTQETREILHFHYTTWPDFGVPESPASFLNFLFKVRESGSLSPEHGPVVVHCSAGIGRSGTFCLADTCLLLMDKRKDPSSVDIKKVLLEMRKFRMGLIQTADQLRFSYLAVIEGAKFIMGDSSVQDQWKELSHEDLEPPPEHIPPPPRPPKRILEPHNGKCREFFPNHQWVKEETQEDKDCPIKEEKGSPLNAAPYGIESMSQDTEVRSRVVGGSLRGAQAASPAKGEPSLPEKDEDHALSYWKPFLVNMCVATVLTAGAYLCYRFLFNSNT

[2] = molecular target: T2, Tyrosine-protein phosphatase non-receptor type 1 (Homo sapiens) (UniProt P18031); assay: Inactivation of PTP1B at 15 uM after 15 sec in presence of glutathione
T2 sequence (whole entry): T1 sequence (P18031 whole entry)

[3] = molecular target: T2, Tyrosine-protein phosphatase non-receptor type 1 (Homo sapiens); assay: Inactivation of PTP1B at 15 uM after 15 sec in presence of phosphate ion
[4] = molecular target: T2, Tyrosine-protein phosphatase non-receptor type 1 (Homo sapiens); assay: Inactivation of PTP1B at 15 uM after 15 sec
[5] = molecular target: T2, Tyrosine-protein phosphatase non-receptor type 1 (Homo sapiens); assay: Inactivation of PTP1B assessed as return of enzyme activity at 5 uM after 10 mins in presence of dithiothreitol
[6] = molecular target: T2, Tyrosine-protein phosphatase non-receptor type 1 (Homo sapiens); assay: Inactivation of PTP1B assessed as return of enzyme activity at 800 nM for 10 mins in presence of dithiothreitol
[7] = molecular target: T2, Tyrosine-protein phosphatase non-receptor type 1 (Homo sapiens); assay: Inactivation of PTP1B at 150 nM

## CC(=O)OO [ETHANEPEROXOIC ACID]
[1]
  Ki: 17 mM
[2]
  Activity: 29%
[3]
  Activity: 49%
[4]
  Activity: 88%
[5]
  Activity: 10%
[6]
  Activity: 73%

## O=C(OO)c1cccc(Cl)c1
[7]
  Activity: Active

## O=C(O)c1ccccc1C(=O)OO
[7]
  Activity: Active

From ChEMBL document CHEMBL1154493, “Oxidative inactivation of protein tyrosine phosphatase 1B by organic hydroperoxides” (Bioorg Med Chem Lett, 2008)
